# From ChEMBL document CHEMBL3885881, “DrugMatrix”
# Species on record: Rattus norvegicus
# Test: DrugMatrix - Regimen: Daily Repeat
# Type: toxicity, organism-based, Sprague-Dawley
# Set-up: regimen Daily Repeat, gender Male, age 6-8 weeks
# Conditions: in vivo, sc, route subcutaneous, […]; for ABSOLUTE BASOPHIL / ABSOLUTE EOSINOPHIL / ABSOLUTE LYMPHOCYTE / ABSOLUTE MONOCYTE / ABSOLUTE SEGMENTED NEUTROPHIL / BASOPHIL / EOSINOPHIL / ERYTHROCYTE COUNT / HEMATOCRIT / HEMOGLOBIN / LEUKOCYTE COUNT / LYMPHOCYTE / MEAN CORPUSCULAR HEMOGLOBIN / MEAN CORPUSCULAR HEMOGLOBIN CONCENTRATION / MEAN CORPUSCULAR VOLUME / MONOCYTE / NEUTROPHIL / NUCLEATED RED BLOOD CELLS / PLATELET COUNT: tissue Blood; for ALANINE AMINOTRANSFERASE / ALBUMIN / ALKALINE PHOSPHATASE / ASPARTATE AMINOTRANSFERASE / BLOOD UREA NITROGEN / CARBON DIOXIDE / CHLORIDE / CHOLESTEROL / CREATINE PHOSPHOKINASE / CREATININE / GLUCOSE / LACTATE DEHYDROGENASE / LIPASE / PHOSPHORUS / POTASSIUM / SODIUM / TOTAL BILIRUBIN / TOTAL PROTEIN / URIC ACID: tissue Plasma
# [1] = 0 mg/kg, 72 h, dose level Control, time 3 day
# [2] = 0 mg/kg, 120 h, dose level Control, time 5 day
# [3] = 56 mg/kg, 72 h, dose level High, time 3 day
compound,measurement,setting,value
C[C@]12CCC(=O)C=C1CC[C@@H]1[C@@H]2[C@@H](O)C[C@@]2(C)[C@H]1CC[C@]2(O)C(=O)CO [HYDROCORTISONE],ABSOLUTE BASOPHIL,[1],0 CELLS/uL
same,ABSOLUTE EOSINOPHIL,[1],0 CELLS/uL
same,ABSOLUTE LYMPHOCYTE,[1],10887 CELLS/uL
same,ABSOLUTE MONOCYTE,[1],56 CELLS/uL
same,ABSOLUTE SEGMENTED NEUTROPHIL,[1],1057 CELLS/uL
same,BASOPHIL,[1],0%
same,EOSINOPHIL,[1],0%
same,ERYTHROCYTE COUNT,[1],5.31 x10E6/uL
same,HEMATOCRIT,[1],33.78%
same,HEMOGLOBIN,[1],13.4 G/DL
same,LEUKOCYTE COUNT,[1],12 x10E3/uL
same,LYMPHOCYTE,[1],91.17%
same,MEAN CORPUSCULAR HEMOGLOBIN,[1],25.25 pg
same,MEAN CORPUSCULAR HEMOGLOBIN CONCENTRATION,[1],39.65 G/DL
same,MEAN CORPUSCULAR VOLUME,[1],63.65 fL
same,MONOCYTE,[1],0.5%
same,NEUTROPHIL,[1],8.33%
same,NUCLEATED RED BLOOD CELLS,[1],0 /100WBC
same,PLATELET COUNT,[1],1142 x10E3/uL
same,ALANINE AMINOTRANSFERASE,[1],57.17 u/L
same,ALBUMIN,[1],4.28 G/DL
same,ALKALINE PHOSPHATASE,[1],425.83 u/L
same,ASPARTATE AMINOTRANSFERASE,[1],93.83 u/L
same,BLOOD UREA NITROGEN,[1],14.17 mg/dL
same,CARBON DIOXIDE,[1],33.5 mmol/L
same,CHLORIDE,[1],100 MEQ/L
same,CHOLESTEROL,[1],70.33 mg/dL
same,CREATINE PHOSPHOKINASE,[1],438.67 u/L
same,CREATININE,[1],0.19 mg/dL
same,GLUCOSE,[1],138.5 mg/dL
same,LACTATE DEHYDROGENASE,[1],190.17 u/L
same,LIPASE,[1],9.83 u/L
same,PHOSPHORUS,[1],11.05 mg/dL
same,POTASSIUM,[1],6.59 MEQ/L
same,SODIUM,[1],143.58 MEQ/L
same,TOTAL BILIRUBIN,[1],0.22 mg/dL
same,TOTAL PROTEIN,[1],6.15 G/DL
same,URIC ACID,[1],1.3 mg/dL
same,ABSOLUTE BASOPHIL,[2],0 CELLS/uL
same,ABSOLUTE EOSINOPHIL,[2],91.17 CELLS/uL
same,ABSOLUTE LYMPHOCYTE,[2],11847.67 CELLS/uL
same,ABSOLUTE MONOCYTE,[2],172.83 CELLS/uL
same,ABSOLUTE SEGMENTED NEUTROPHIL,[2],1105 CELLS/uL
same,BASOPHIL,[2],0%
same,EOSINOPHIL,[2],0.67%
same,ERYTHROCYTE COUNT,[2],5.35 x10E6/uL
same,HEMATOCRIT,[2],33.65%
same,HEMOGLOBIN,[2],13.42 G/DL
same,LEUKOCYTE COUNT,[2],13.22 x10E3/uL
same,LYMPHOCYTE,[2],89.83%
same,MEAN CORPUSCULAR HEMOGLOBIN,[2],25.12 pg
same,MEAN CORPUSCULAR HEMOGLOBIN CONCENTRATION,[2],39.9 G/DL
same,MEAN CORPUSCULAR VOLUME,[2],63 fL
same,MONOCYTE,[2],1.33%
same,NEUTROPHIL,[2],8.17%
same,NUCLEATED RED BLOOD CELLS,[2],0 /100WBC
same,PLATELET COUNT,[2],1347.83 x10E3/uL
same,ALANINE AMINOTRANSFERASE,[2],50 u/L
same,ALBUMIN,[2],4.1 G/DL
same,ALKALINE PHOSPHATASE,[2],329.17 u/L
same,ASPARTATE AMINOTRANSFERASE,[2],77.17 u/L
same,BLOOD UREA NITROGEN,[2],16.83 mg/dL
same,CARBON DIOXIDE,[2],34.83 mmol/L
same,CHLORIDE,[2],99.83 MEQ/L
same,CHOLESTEROL,[2],75.67 mg/dL
same,CREATINE PHOSPHOKINASE,[2],295.83 u/L
same,CREATININE,[2],0.18 mg/dL
same,GLUCOSE,[2],156.33 mg/dL
same,LACTATE DEHYDROGENASE,[2],166.83 u/L
same,LIPASE,[2],9.83 u/L
same,PHOSPHORUS,[2],12.18 mg/dL
same,POTASSIUM,[2],6.69 MEQ/L
same,SODIUM,[2],143.97 MEQ/L
same,TOTAL BILIRUBIN,[2],0.22 mg/dL
same,TOTAL PROTEIN,[2],6.05 G/DL
same,URIC ACID,[2],1.6 mg/dL
same,ABSOLUTE BASOPHIL,[3],0 CELLS/uL
same,ABSOLUTE EOSINOPHIL,[3],0 CELLS/uL
same,ABSOLUTE LYMPHOCYTE,[3],1706 CELLS/uL
same,ABSOLUTE MONOCYTE,[3],103.33 CELLS/uL
same,ABSOLUTE SEGMENTED NEUTROPHIL,[3],3357.33 CELLS/uL
same,BASOPHIL,[3],0%
same,EOSINOPHIL,[3],0%
same,ERYTHROCYTE COUNT,[3],5.79 x10E6/uL
same,HEMATOCRIT,[3],37.97%
same,HEMOGLOBIN,[3],14.73 G/DL
same,LEUKOCYTE COUNT,[3],5.17 x10E3/uL
same,LYMPHOCYTE,[3],33.33%
same,MEAN CORPUSCULAR HEMOGLOBIN,[3],25.47 pg
same,MEAN CORPUSCULAR HEMOGLOBIN CONCENTRATION,[3],38.87 G/DL
same,MEAN CORPUSCULAR VOLUME,[3],65.57 fL
same,MONOCYTE,[3],2%
same,NEUTROPHIL,[3],64.67%
same,NUCLEATED RED BLOOD CELLS,[3],0.33 /100WBC
same,PLATELET COUNT,[3],1157.67 x10E3/uL
same,ALANINE AMINOTRANSFERASE,[3],124.33 u/L
same,ALBUMIN,[3],5.07 G/DL
same,ALKALINE PHOSPHATASE,[3],509.67 u/L
same,ASPARTATE AMINOTRANSFERASE,[3],177.33 u/L
same,BLOOD UREA NITROGEN,[3],13.67 mg/dL
same,CARBON DIOXIDE,[3],29 mmol/L
same,CHLORIDE,[3],99 MEQ/L
same,CHOLESTEROL,[3],119.33 mg/dL
same,CREATINE PHOSPHOKINASE,[3],250.33 u/L
same,CREATININE,[3],0.17 mg/dL
same,GLUCOSE,[3],360 mg/dL
same,LACTATE DEHYDROGENASE,[3],443.67 u/L
same,LIPASE,[3],10.67 u/L
same,PHOSPHORUS,[3],10.63 mg/dL
same,POTASSIUM,[3],5.68 MEQ/L
same,SODIUM,[3],144.93 MEQ/L
same,TOTAL BILIRUBIN,[3],0.17 mg/dL
same,TOTAL PROTEIN,[3],6.97 G/DL
same,URIC ACID,[3],1.43 mg/dL
